Measured values as given in publication PMC10141580, “Cyclic Dichalcogenides Extend the Reach of Bioreductive Prodrugs to Harness Thiol/Disulfide Oxidoreductases: Applications to seco-Duocarmycins Targeting the Thioredoxin System” (ACS Central Science, 2023).
Values joined by “and” are separate entries in the source; they are usually repeats but may differ in a detail not shown here. Equal values may be shown once. Read-outs that look alike come from different tables or passages of the source.

System: panel of 140 standard cancer cell lines
Assay: ProliFiler-140 cancer cell line screen (CellTiterGlo, 72 h)
Type: cell-based
Protocol: Incubations were performed for 72 h before automated viability readout with CellTiterGlo (Figure 8).
End of Figure S11 (part 5 of 5): ProliFiler-140 cancer cell line screening for cytotoxicity of the prodrugs.
8-data-point dose response curves from CellTiter-Glo® viability readout.
ProliFiler-140 cell line panel part V

Q: COc1cc2cc(C(=O)N3C[C@@H](CCl)c4c3cc(OC(=O)N3CCN(C(=O)CCC(=O)N5CCN(C)CC5)[C@H]5CSSC[C@H]53)c3ccccc43)[nH]c2c(OC)c1OC [P-SS66C-CBI-TMI] was tested. Which “Reductive Activation Index” value (786-O (Kidney)) did it give?
A: 4.12

Q: And the “Reductive Activation Index” value (A172 (Brain))?
A: 5.35

Q: And the “Reductive Activation Index” value (A375 (Skin))?
A: 3.01

Q: What about the “Reductive Activation Index” value (A427 (Lung)) of the same compound?
A: 19 and 18.60

Q: And the “Reductive Activation Index” value (A498 (Kidney))?
A: 3.19

Q: And the “Reductive Activation Index” value (A549 (Lung))?
A: 25

Q: And the “Reductive Activation Index” value (AsPC-1 (Pancreas))?
A: 8.2

Q: What about the “Reductive Activation Index” value (BEN (Lung)) of the same compound?
A: 27

Q: What about the “Reductive Activation Index” value (BT-20 (Breast)) of the same compound?
A: 9.1

Q: What about the IC50 (COV434, read-out: IC50 [M] (ProliFiler-140), COV434 (Ovary)) of the same compound?
A: 1.5e-08 M

Q: What about the “Reductive Activation Index” value (Caki-1 (Kidney)) of the same compound?
A: 5.18

Q: What about the “Reductive Activation Index” value (Caki-2 (Kidney)) of the same compound?
A: 5.62 and 5.6

Q: What about the “Reductive Activation Index” value (Calu-6 (Lung)) of the same compound?
A: 5.77

Q: And the “Reductive Activation Index” value (Colo 205 (Colon))?
A: 8.8

Q: And the “Reductive Activation Index” value (DLD-1 (Colon))?
A: 6.33 and 6.3

Q: What about the “Reductive Activation Index” value (EFM-19 (Breast)) of the same compound?
A: 3.1 and 3.08

Q: And the “Reductive Activation Index” value (EFM-192A (Breast))?
A: 6.6

Q: And the IC50 (EFM-192A, read-out: IC50 [M] (ProliFiler-140), EFM-192A (Breast))?
A: 2.7e-07 M

Q: And the “Reductive Activation Index” value (EFO-27 (Ovary))?
A: 15

Q: What about the “Reductive Activation Index” value (H4 (Brain)) of the same compound?
A: 5.82

Q: And the “Reductive Activation Index” value (H460 (Lung))?
A: 9.3

Q: What about the “Reductive Activation Index” value (HCC202 (Breast)) of the same compound?
A: 9.8

Q: What about the IC50 (HCC202, read-out: IC50 [M] (ProliFiler-140), HCC202 (Breast)) of the same compound?
A: 9.1e-08 M

Q: And the “Reductive Activation Index” value (HCC827 (Lung))?
A: 15

Q: And the “Reductive Activation Index” value (HCC 1569 (Breast))?
A: 28

Q: What about the “Reductive Activation Index” value (HCT-15 (Colon)) of the same compound?
A: 3.89

Q: And the “Reductive Activation Index” value (HEC-1-A (Endometrium))?
A: 18

Q: And the “Reductive Activation Index” value (HEC-1-B (Endometrium))?
A: 8.3

Q: What about the “Reductive Activation Index” value (HT-29 (Colon)) of the same compound?
A: 9.5

Q: And the “Reductive Activation Index” value (HeLa (Ovary))?
A: 23.88

Q: And the “Reductive Activation Index” value (Hep3B2.1-7 (Liver))?
A: 7.8

Q: What about the IC50 (Homo sapiens, 786-0, read-out: IC50 [M] (ProliFiler-140), 786-O (Kidney)) of the same compound?
A: 2.86e-08 M

Q: What about the IC50 (Homo sapiens, A 172, read-out: IC50 [M] (ProliFiler-140), A172 (Brain)) of the same compound?
A: 1.07e-07 M

Q: And the IC50 (Homo sapiens, A498, read-out: IC50 [M] (ProliFiler-140), A498 (Kidney))?
A: 9.41e-08 M

Q: What about the IC50 (Homo sapiens, A549, read-out: IC50 [M] (ProliFiler-140), A549 (Lung)) of the same compound?
A: 3e-08 M

Q: What about the IC50 (Homo sapiens, A2058, read-out: IC50 [M] (ProliFiler-140), A2058 (Skin)) of the same compound?
A: 1.1e-08 M

Q: And the IC50 (Homo sapiens, A2780, read-out: IC50 [M] (ProliFiler-140), A2780 (Ovary))?
A: 8.1e-09 M

Q: And the IC50 (Homo sapiens, A-375, read-out: IC50 [M] (ProliFiler-140), A375 (Skin))?
A: 5.45e-08 M

Q: What about the IC50 (Homo sapiens, A-427, read-out: IC50 [M] (ProliFiler-140), A427 (Lung)) of the same compound?
A: 4.4e-08 M

Q: What about the IC50 (Homo sapiens, A-431, read-out: IC50 [M] (ProliFiler-140), A431 (Skin)) of the same compound?
A: 2.02e-08 M

Q: What about the IC50 (Homo sapiens, ASPC1, read-out: IC50 [M] (ProliFiler-140), AsPC-1 (Pancreas)) of the same compound?
A: 2.6e-07 M

Q: What about the IC50 (Homo sapiens, BT-20, read-out: IC50 [M] (ProliFiler-140), BT-20 (Breast)) of the same compound?
A: 1.2e-07 M

Q: And the IC50 (Homo sapiens, BXPC-3, read-out: IC50 [M] (ProliFiler-140), BxPC-3 (Pancreas))?
A: 4.64e-08 M

Q: And the IC50 (Homo sapiens, CAKI-1, Caki-1)?
A: 6.3e-08 M

Q: And the IC50 (Homo sapiens, CAKI-1, read-out: IC50 [M] (ProliFiler-140), Caki-1 (Kidney))?
A: 6.34e-08 M

Q: What about the IC50 (Homo sapiens, CAKI-2, read-out: IC50 [M] (ProliFiler-140), Caki-2 (Kidney)) of the same compound?
A: 2.69e-07 M

Q: What about the IC50 (Homo sapiens, COLO 205, Colo 205) of the same compound?
A: 8.6e-08 M

Q: What about the IC50 (Homo sapiens, COLO 205, read-out: IC50 [M] (ProliFiler-140), Colo 205 (Colon)) of the same compound?
A: 8.6e-08 M

Q: And the IC50 (Homo sapiens, COR-L279, read-out: IC50 [M] (ProliFiler-140), COR-L279 (Lung))?
A: 7.2e-09 M

Q: And the IC50 (Homo sapiens, Calu-6, read-out: IC50 [M] (ProliFiler-140), Calu-6 (Lung))?
A: 5.93e-08 M

Q: And the IC50 (Homo sapiens, DLD-1, read-out: IC50 [M] (ProliFiler-140), DLD-1 (Colon))?
A: 1.25e-07 M

Q: And the IC50 (Homo sapiens, DU-145, read-out: IC50 [M] (ProliFiler-140), DU-145 (Prostate))?
A: 1.6e-08 M

Q: What about the IC50 (Homo sapiens, DV-90, read-out: IC50 [M] (ProliFiler-140), DV90 (Lung)) of the same compound?
A: 1.2e-08 M

Q: And the IC50 (Homo sapiens, Detroit 562, read-out: IC50 [M] (ProliFiler-140), Detroit562 (Head/Neck))?
A: 1.88e-08 M

Q: And the IC50 (Homo sapiens, EFM-19, read-out: IC50 [M] (ProliFiler-140), EFM-19 (Breast))?
A: 3.1e-07 M

Q: What about the IC50 (Homo sapiens, EFO-27, read-out: IC50 [M] (ProliFiler-140), EFO-27 (Ovary)) of the same compound?
A: 6.2e-08 M

Q: What about the IC50 (Homo sapiens, EPLC-272H, read-out: IC50 [M] (ProliFiler-140), EPLC-272H (Lung)) of the same compound?
A: 4.57e-08 M

Q: And the IC50 (Homo sapiens, HCC38, read-out: IC50 [M] (ProliFiler-140), HCC38 (Breast))?
A: 1.35e-08 M

Q: And the IC50 (Homo sapiens, HCC827, read-out: IC50 [M] (ProliFiler-140), HCC827 (Lung))?
A: 9.1e-08 M

Q: And the IC50 (Homo sapiens, HCC1569, read-out: IC50 [M] (ProliFiler-140), HCC 1569 (Breast))?
A: 3.6e-08 M

Q: What about the IC50 (Homo sapiens, HCT-15, HCT-15) of the same compound?
A: 1.4e-07 M

Q: What about the IC50 (Homo sapiens, HCT-15, read-out: IC50 [M] (ProliFiler-140), HCT-15 (Colon)) of the same compound?
A: 1.4e-07 M

Q: And the IC50 (Homo sapiens, HCT-116, HCT116)?
A: 3.2e-08 M

Q: And the IC50 (Homo sapiens, HCT-116, read-out: IC50 [M] (ProliFiler-140), HCT116 (Colon))?
A: 3.23e-08 M

Q: And the IC50 (Homo sapiens, HEC-1-A, read-out: IC50 [M] (ProliFiler-140), HEC-1-A (Endometrium))?
A: 1e-07 M

Q: What about the IC50 (Homo sapiens, HEC-1B, read-out: IC50 [M] (ProliFiler-140), HEC-1-B (Endometrium)) of the same compound?
A: 4e-07 M

Q: What about the IC50 (Homo sapiens, HL-60, HL-60) of the same compound?
A: 1.5e-08 M

Q: And the IC50 (Homo sapiens, HL-60, read-out: IC50 [M] (ProliFiler-140), HL-60 (Blood))?
A: 1.5e-08 M

Q: What about the IC50 (Homo sapiens, HT-29, HT-29) of the same compound?
A: 1.1e-07 M

Q: What about the IC50 (Homo sapiens, HT-29, read-out: IC50 [M] (ProliFiler-140), HT-29 (Colon)) of the same compound?
A: 1.1e-07 M

Q: And the IC50 (Homo sapiens, HT-1080, read-out: IC50 [M] (ProliFiler-140), HT-1080 (Fibrosarcoma))?
A: 2.13e-08 M

Q: What about the IC50 (Homo sapiens, HeLa, read-out: IC50 [M] (ProliFiler-140), HeLa (Ovary)) of the same compound?
A: 9.89e-09 M

Q: What about the IC50 (Homo sapiens, Hs746T, read-out: IC50 [M] (ProliFiler-140), Hs 746T (Stomach)) of the same compound?
A: 7.5e-08 M

Q: What about the IC50 (Homo sapiens, HuTu80, read-out: IC50 [M] (ProliFiler-140), Hutu 80 (Duodenum)) of the same compound?
A: 9.56e-09 M

Q: What about the IC50 (Homo sapiens, Huh-7, read-out: IC50 [M] (ProliFiler-140), HuH7 (Liver)) of the same compound?
A: 1e-07 M

Q: And the IC50 (Homo sapiens, Ishikawa, read-out: IC50 [M] (ProliFiler-140), Ishikawa (Endometrium))?
A: 3.8e-09 M

Q: And the IC50 (Homo sapiens, JIMT-1, read-out: IC50 [M] (ProliFiler-140), JIMT-1 (Breast))?
A: 1e-07 M

Q: And the IC50 (Homo sapiens, JVM-3, read-out: IC50 [M] (ProliFiler-140), JVM-3 (Blood))?
A: 3.36e-09 M

Q: And the IC50 (Homo sapiens, Jurkat, read-out: IC50 [M] (ProliFiler-140), Jurkat (Blood))?
A: 6.17e-09 M

Q: And the IC50 (Homo sapiens, K562, read-out: IC50 [M] (ProliFiler-140), K562 (Blood))?
A: 1.3e-07 M

Q: What about the IC50 (Homo sapiens, KARPAS-299, KARPAS 299 (Blood), read-out: IC50 [M] (ProliFiler-140)) of the same compound?
A: 1.08e-07 M

Q: What about the IC50 (Homo sapiens, KATO III, read-out: IC50 [M] (ProliFiler-140), Kato III (Stomach)) of the same compound?
A: 2.2e-07 M
